Experimental findings from ChEMBL document CHEMBL1909046, “DrugMatrix in vitro pharmacology data” are described below.

Molecules are shown by their SMILES.

Assay [1] has as its target T1, Alpha-2A adrenergic receptor (Homo sapiens, UniProt P08913). Also: in other assays of this panel Not Active means under 50% inhibition at 10 µM.
T1 sequence (P08913 whole entry): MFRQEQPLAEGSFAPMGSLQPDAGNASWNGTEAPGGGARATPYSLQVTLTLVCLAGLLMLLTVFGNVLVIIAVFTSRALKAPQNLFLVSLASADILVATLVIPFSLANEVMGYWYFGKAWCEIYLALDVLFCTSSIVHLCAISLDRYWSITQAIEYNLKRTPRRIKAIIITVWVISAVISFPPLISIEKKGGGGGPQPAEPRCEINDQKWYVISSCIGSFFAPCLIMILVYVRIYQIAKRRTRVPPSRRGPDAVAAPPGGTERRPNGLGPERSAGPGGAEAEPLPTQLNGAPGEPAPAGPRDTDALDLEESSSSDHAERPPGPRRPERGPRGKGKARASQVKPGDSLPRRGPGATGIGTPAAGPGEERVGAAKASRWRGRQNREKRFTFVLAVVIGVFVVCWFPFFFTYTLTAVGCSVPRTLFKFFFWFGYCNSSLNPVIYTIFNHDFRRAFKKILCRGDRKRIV
The class given is cell membranes, Sf9, Membrane. Particulars: for Ki: read-out: Ki.

Assay [2] addresses Beta-3 adrenergic receptor (Homo sapiens, UniProt P13945). In words: DRUGMATRIX: Adrenergic beta3 radioligand binding (ligand: [125I] Cyanopindolol). Particulars: hek293; Not Active = under 50% inhibition at 10 µM. The class given is cell membranes, HEK293, Membrane.
Assay [3] is described as follows: DRUGMATRIX: Glutamate, NMDA, Phencyclidine radioligand binding (ligand: [3H] TCP). Format: cell membranes, Rattus norvegicus, Wistar, Cerebral cortex, Membrane. The following applies: Not Active = under 50% inhibition at 10 µM.
The target of assay [4] is T2, Muscarinic acetylcholine receptor M5 (Homo sapiens, UniProt P08912). Also: in other assays of this panel Not Active means under 50% inhibition at 10 µM.
T2 sequence (P08912 whole entry): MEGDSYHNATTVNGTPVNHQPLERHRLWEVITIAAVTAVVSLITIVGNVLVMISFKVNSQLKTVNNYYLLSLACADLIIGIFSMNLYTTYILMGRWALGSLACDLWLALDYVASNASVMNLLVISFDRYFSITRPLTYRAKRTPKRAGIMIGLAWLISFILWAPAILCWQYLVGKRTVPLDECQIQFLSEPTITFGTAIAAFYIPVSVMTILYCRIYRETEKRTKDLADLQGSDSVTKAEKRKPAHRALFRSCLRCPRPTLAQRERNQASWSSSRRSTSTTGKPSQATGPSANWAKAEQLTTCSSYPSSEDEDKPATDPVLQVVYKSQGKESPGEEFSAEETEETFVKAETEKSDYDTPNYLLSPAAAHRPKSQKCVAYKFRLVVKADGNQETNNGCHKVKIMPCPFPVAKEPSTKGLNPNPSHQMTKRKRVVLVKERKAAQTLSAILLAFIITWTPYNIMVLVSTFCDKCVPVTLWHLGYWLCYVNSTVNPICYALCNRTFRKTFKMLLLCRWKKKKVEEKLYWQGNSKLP
Format: cell membranes, CHO-K1, Membrane. The following applies: for Ki: read-out: Ki.

In assay [5] the target is T3, Nitric oxide synthase, inducible (Mus musculus, UniProt P29477).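 Also: inhibition of iNOS enzyme activity measured with L-arginine as substrate; in other assays of this panel Not Active means under 50% inhibition at 10 µM.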
T3 sequence (P29477 whole entry): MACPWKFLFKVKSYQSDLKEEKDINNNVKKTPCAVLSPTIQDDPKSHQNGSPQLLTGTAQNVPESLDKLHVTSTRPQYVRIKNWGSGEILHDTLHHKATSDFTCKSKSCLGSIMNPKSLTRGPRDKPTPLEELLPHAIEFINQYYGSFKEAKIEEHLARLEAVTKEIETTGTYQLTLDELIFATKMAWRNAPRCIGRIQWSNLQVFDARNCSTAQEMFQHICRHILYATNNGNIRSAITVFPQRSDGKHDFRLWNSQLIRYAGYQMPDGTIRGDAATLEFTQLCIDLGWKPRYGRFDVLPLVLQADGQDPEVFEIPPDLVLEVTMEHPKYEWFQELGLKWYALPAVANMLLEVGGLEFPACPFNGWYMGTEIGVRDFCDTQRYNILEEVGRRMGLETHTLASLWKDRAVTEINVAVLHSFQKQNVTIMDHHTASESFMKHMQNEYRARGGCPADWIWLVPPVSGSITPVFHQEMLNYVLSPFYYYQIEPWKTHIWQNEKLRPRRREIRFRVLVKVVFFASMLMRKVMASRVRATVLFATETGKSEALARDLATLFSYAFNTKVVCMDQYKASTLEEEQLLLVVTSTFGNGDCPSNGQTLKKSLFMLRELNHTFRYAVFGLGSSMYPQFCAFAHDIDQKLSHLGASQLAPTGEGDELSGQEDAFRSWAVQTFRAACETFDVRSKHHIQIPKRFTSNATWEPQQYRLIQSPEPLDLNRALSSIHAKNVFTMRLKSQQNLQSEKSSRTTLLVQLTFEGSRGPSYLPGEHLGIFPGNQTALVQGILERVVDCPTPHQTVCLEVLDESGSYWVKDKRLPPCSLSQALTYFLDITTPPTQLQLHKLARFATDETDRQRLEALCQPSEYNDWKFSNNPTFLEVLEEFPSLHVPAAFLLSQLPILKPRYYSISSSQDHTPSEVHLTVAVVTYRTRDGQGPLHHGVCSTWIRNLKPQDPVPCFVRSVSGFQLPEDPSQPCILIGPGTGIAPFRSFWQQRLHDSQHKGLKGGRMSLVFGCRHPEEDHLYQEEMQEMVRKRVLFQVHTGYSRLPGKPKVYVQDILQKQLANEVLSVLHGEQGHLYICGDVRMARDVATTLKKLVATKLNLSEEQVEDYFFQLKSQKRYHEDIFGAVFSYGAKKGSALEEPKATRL
Also noted: species or system Escherichia coli.

Chain of Beta-3 adrenergic receptor (P13945 whole entry): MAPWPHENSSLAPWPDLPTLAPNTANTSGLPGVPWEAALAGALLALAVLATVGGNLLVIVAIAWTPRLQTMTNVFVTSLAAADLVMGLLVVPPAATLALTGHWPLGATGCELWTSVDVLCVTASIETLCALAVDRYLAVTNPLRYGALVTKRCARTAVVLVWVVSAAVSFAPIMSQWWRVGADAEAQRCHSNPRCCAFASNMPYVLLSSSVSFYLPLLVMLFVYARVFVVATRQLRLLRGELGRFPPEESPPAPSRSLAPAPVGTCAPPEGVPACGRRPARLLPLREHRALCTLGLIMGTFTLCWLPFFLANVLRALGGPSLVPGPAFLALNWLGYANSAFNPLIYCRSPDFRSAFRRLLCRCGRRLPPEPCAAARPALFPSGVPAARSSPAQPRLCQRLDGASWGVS

As for `CN1CCC(=C2c3ccccc3CC(=O)c3sccc32)CC1` [KETOTIFEN], the half-inhibitory concentration (IC50) in assay [1] (read-out: IC50) was 2190 nM; in assay [2], “Not Active”; in assay [3] it was “Not Active”; in assay [4] (read-out: IC50), 374 nM; in assay [5], “Not Active”. In addition, the Ki in assay [1] is 820 nM; in assay [3], “Not Active”; in assay [4], 269 nM.
On to `N[C@@H](Cn1ccc(=O)c(O)c1)C(=O)O` [L-MIMOSINE], for which the IC50 result in assay [1] (sf9), in assay [2], in assay [3], in assay [4] (cho-k1) and in assay [5] was “Not Active” throughout. For the same compound, in assay [3], the Ki result was “Not Active”.
In the case of `C[N+](C)(C)C[C@H](O)CC(=O)[O-]` [LEVOCARNITINE], the half-maximal inhibitory concentration (IC50) entry in assay [1] (sf9), in assay [2], in assay [3], in assay [4] (cho-k1) and in assay [5] was “Not Active” in each case. For the same compound, the inhibition constant Ki entry in assay [3] is reported as “Not Active”.
On to `C[C@H]1COc2c(N3CCN(C)CC3)c(F)cc3c(=O)c(C(=O)O)cn1c23.C[C@H]1COc2c(N3CCN(C)CC3)c(F)cc3c(=O)c(C(=O)O)cn1c23.O` [LEVOFLOXACIN], for which the IC50 entry in assay [1] (sf9), in assay [2], in assay [3], in assay [4] (cho-k1) and in assay [5] was “Not Active” each time. In addition, in assay [3], the Ki entry is on record as “Not Active”.
Take `CCn1cc(C(=O)O)c(=O)c2cc(F)c(N3CCNC(C)C3)c(F)c21` (stereo not drawn) [LOMEFLOXACIN]: the half-inhibitory concentration (IC50) entry in assay [1] (sf9), in assay [2], in assay [3], in assay [4] (cho-k1) and in assay [5] was “Not Active” throughout. For the same compound, in assay [3], the Ki result was “Not Active”.
Take `CN1CCCC(CN2c3ccccc3Sc3ccccc32)C1` (stereo not drawn) [MEPAZINE]: the concentration for half-maximal inhibition (IC50) in assay [1] (read-out: IC50) is 1460 nM; in assay [2], “Not Active”; in assay [3], “Not Active”; in assay [4] (read-out: IC50) it was 40 nM; in assay [5] it was “Not Active”. The Ki in assay [1] is 546 nM; in assay [3] it was “Not Active”; in assay [4] it was 28 nM.
Turning to `Cc1cccc(C)c1NC(=O)C1CCCCN1C` (stereo not drawn) [MEPIVACAINE], the IC50 result in assay [1] (sf9), in assay [2], in assay [3], in assay [4] (cho-k1) and in assay [5] was “Not Active” throughout. Further, the Ki entry in assay [3] was “Not Active”.
With `CN(C)C(=N)NC(=N)N` [METFORMIN], the concentration for half-maximal inhibition (IC50) entry in assay [1] (sf9), in assay [2], in assay [3], in assay [4] (cho-k1) and in assay [5] was “Not Active” in each case. Also, the Ki result in assay [3] is reported as “Not Active”.
`CC(C)(C)NCC(O)COc1cccc2c1CC(O)C(O)C2` (stereo not drawn) [NADOLOL]: the IC50 entry in assay [1] (sf9), in assay [2], in assay [3], in assay [4] (cho-k1) and in assay [5] was “Not Active” in each case. Also, the inhibition constant (Ki) entry in assay [3] is “Not Active”.
`C[C@]12CC[C@H]3[C@@H](CCC4=CC(=O)CC[C@@H]43)[C@@H]1CC[C@@H]2O` [NANDROLONE]: the IC50 entry in assay [1] (sf9), in assay [2], in assay [3], in assay [4] (cho-k1) and in assay [5] was “Not Active” throughout. In assay [3], the Ki entry was “Not Active”.
For the compound `C[C@@H]1C/C=C/C=C/C=C/C=C/[C@H](O[C@@H]2O[C@H](C)[C@@H](O)[C@H](N)[C@@H]2O)C[C@@H]2O[C@](O)(C[C@@H](O)C[C@H]3O[C@@H]3/C=C/C(=O)O1)C[C@H](O)[C@H]2C(=O)O` [NATAMYCIN], the IC50 entry in assay [1] (sf9), in assay [2], in assay [3], in assay [4] (cho-k1) and in assay [5] was “Not Active” throughout. In addition, the inhibition constant Ki result in assay [3] is reported as “Not Active”.
Regarding `CN(C)C(=O)Oc1cccc([N+](C)(C)C)c1.[Br-]` [NEOSTIGMINE BROMIDE], the half-inhibitory concentration (IC50) result in assay [1] (sf9), in assay [2], in assay [3], in assay [4] (cho-k1) and in assay [5] was “Not Active” throughout. The inhibitory constant (Ki) result in assay [3] is listed as “Not Active”.
Consider `NC(=O)c1cccnc1` [NIACINAMIDE], for which the IC50 result in assay [1] (sf9), in assay [2], in assay [3], in assay [4] (cho-k1) and in assay [5] was “Not Active” in each case. Also, in assay [3], the Ki entry is listed as “Not Active”.
`CS(=O)(=O)Nc1ccc([N+](=O)[O-])cc1Oc1ccccc1` [NIMESULIDE]: the IC50 entry in assay [1] (sf9), in assay [2], in assay [3], in assay [4] (cho-k1) and in assay [5] was “Not Active” each time. Also, the Ki entry in assay [3] is “Not Active”.
For the compound `CN1C(=O)CN=C(c2ccccc2)c2cc([N+](=O)[O-])ccc21` [NIMETAZEPAM], the IC50 result in assay [1] (sf9), in assay [2], in assay [3], in assay [4] (cho-k1) and in assay [5] was “Not Active” throughout. Moreover, the inhibitory constant (Ki) result in assay [3] was “Not Active”.
For `COc1ccc2c(c1OC)C(=O)O[C@@H]2[C@H]1c2c(cc3c(c2OC)OCO3)CCN1C` [NOSCAPINE], the concentration for half-maximal inhibition (IC50) result in assay [1] (sf9), in assay [2], in assay [3], in assay [4] (cho-k1) and in assay [5] was “Not Active” each time. In addition, in assay [3], the Ki result is on record as “Not Active”.
Take `C[C@@H]1O[C@@H](O[C@H]2C[C@@H](O)[C@]3(CO)[C@H]4[C@H](O)C[C@]5(C)[C@@H](C6=CC(=O)OC6)CC[C@]5(O)[C@@H]4CC[C@]3(O)C2)[C@H](O)[C@H](O)[C@H]1O` [OUABAIN]: the IC50 result in assay [1] (sf9), in assay [2], in assay [3], in assay [4] (cho-k1) and in assay [5] was “Not Active” each time. For the same compound, the Ki result in assay [3] is “Not Active”.
With `NC(=O)N1c2ccccc2CC(=O)c2ccccc21` [OXCARBAZEPINE], the half-maximal inhibitory concentration (IC50) entry in assay [1] (sf9), in assay [2], in assay [3], in assay [4] (cho-k1) and in assay [5] was “Not Active” each time. Further, in assay [3], the Ki result is recorded as “Not Active”.
For the compound `COc1ccnc(C[S+]([O-])c2nc3ccc(OC(F)F)cc3[nH]2)c1OC` (stereo not drawn) [PANTOPRAZOLE], the IC50 result in assay [1] (sf9), in assay [2], in assay [3], in assay [4] (cho-k1) and in assay [5] was “Not Active” each time. For the same compound, in assay [3], the Ki result was “Not Active”.
